Consider 3 compounds from PMC5674183 (2017).

Each structure is given as a SMILES string.

The test system of assay [1] is dual labeled ds DNA (DNA, hairpin, hexaethylene glycol (HEG) linker between 10 and 11) TATAGCTATATATAGCTATA
Kind of assay: FRET melting. The settings on record: K+ (60 mM K-cacodylate), pH 6 (Table 1; also pH 7), 1 μM compound, 100 nM DNA.

Assay [2] relates to dual labeled c-MYC-G (DNA, G4) TGGGGAGGGTGGGGAGGGTGGGGAAGGTGGGGA
Briefly: FRET melting. The settings on record: K+ (60 mM K-cacodylate); pH 7; 1 μM compound, 100 nM DNA.

Assay [3] concerns 5′-TAMRA-BCL-2-C (DNA, i motif) CAGCCCCGCTCCCGCCCCCTTCCTCCCGCGCCCGCCCCT
Kind of assay: fluorescence quenching titration. The settings on record: K+ (60 mM K-cacodylate); pH 6 (folded at pH 4.8), 25 °C, 250 nM DNA.

The subject of assay [4] is 5′-TAMRA-c-MYC-C (DNA, i motif) TCCCCACCTTCCCCACCCTCCCCACCCTCCCCA
Briefly: fluorescence quenching titration. The settings on record: K+ (60 mM K-cacodylate); pH 6 (folded at pH 4.8), 25 °C, 250 nM DNA.

The subject of assay [5] is 5′-TAMRA-BCL-2-G (DNA, G4) AGGGGCGGGCGCGGGAGGAAGGGGGCGGGAGCGGGGCGT
Kind of assay: fluorescence quenching titration. Conditions: K+ (60 mM K-cacodylate); pH 7, 25 °C, 250 nM DNA.

Assay [6] deals with 5′-TAMRA-c-MYC-G (DNA, G4) TGGGGAGGGTGGGGAGGGTGGGGAAGGTGGGGA
Kind of assay: fluorescence quenching titration. Conditions: K+ (60 mM K-cacodylate); pH 7, 25 °C, 250 nM DNA.

Assay [7] concerns 5′-TAMRA-ds DNA (DNA, hairpin, hexaethylene glycol (HEG) linker between 10 and 11) TATAGCTATATATAGCTATA
Kind of assay: fluorescence quenching titration. Conditions: K+ (60 mM K-cacodylate); pH 7, 25 °C, 250 nM DNA; up to 30 μM.

For assay [8], the system named is 3′-TAMRA-BCL-2-C (DNA, i motif) CAGCCCCGCTCCCGCCCCCTTCCTCCCGCGCCCGCCCCT
Briefly: fluorescence quenching titration. The settings on record: K+ (60 mM K-cacodylate); pH 6 (folded at pH 4.8), 25 °C, 250 nM DNA.

For assay [9], the system named is 3′-TAMRA-c-MYC-C (DNA, i motif) TCCCCACCTTCCCCACCCTCCCCACCCTCCCCA
Kind of assay: fluorescence quenching titration. The settings on record: K+ (60 mM K-cacodylate); pH 6 (folded at pH 4.8), 25 °C, 250 nM DNA.

The test system of assay [10] is 3′-TAMRA-BCL-2-G (DNA, G4) AGGGGCGGGCGCGGGAGGAAGGGGGCGGGAGCGGGGCGT
Kind of assay: fluorescence quenching titration. Conditions: K+ (60 mM K-cacodylate); pH 7, 25 °C, 250 nM DNA.

The subject of assay [11] is 3′-TAMRA-c-MYC-G (DNA, G4) TGGGGAGGGTGGGGAGGGTGGGGAAGGTGGGGA
Kind of assay: fluorescence quenching titration. The settings on record: K+ (60 mM K-cacodylate); pH 7, 25 °C, 250 nM DNA.

In assay [12] the test system is BCL-2-C (DNA, i motif) CAGCCCCGCTCCCGCCCCCTTCCTCCCGCGCCCGCCCCT
Briefly: thiazole orange displacement (fluorescence). The settings on record: K+ (60 mM K-cacodylate); pH 6 (folded at pH 4.8); 0.5 μM thiazole orange displaced, 0.25 μM DNA.

Assay [13] relates to BCL-2-G (DNA, G4) AGGGGCGGGCGCGGGAGGAAGGGGGCGGGAGCGGGGCGT
Kind of assay: thiazole orange displacement (fluorescence). The settings on record: K+ (60 mM K-cacodylate); pH 7; 0.5 μM thiazole orange displaced, 0.25 μM DNA.

The subject of assay [14] is c-MYC-C (DNA, i motif) TCCCCACCTTCCCCACCCTCCCCACCCTCCCCA
Briefly: thiazole orange displacement (fluorescence). Conditions: K+ (60 mM K-cacodylate); pH 6 (folded at pH 4.8); 0.5 μM thiazole orange displaced, 0.25 μM DNA.

Assay [15] relates to c-MYC-G (DNA, G4) TGGGGAGGGTGGGGAGGGTGGGGAAGGTGGGGA
Briefly: thiazole orange displacement (fluorescence). The settings on record: K+ (60 mM K-cacodylate); pH 7; 0.5 μM thiazole orange displaced, 0.25 μM DNA.

Assay [16] relates to h-TELO-C (DNA, i motif) TAACCCTAACCCTAACCCTAACCC
Briefly: thiazole orange displacement (fluorescence). Conditions: K+ (60 mM K-cacodylate); pH 6; thiazole orange displaced, 0.25 μM DNA.

Assay [17] relates to h-TELO-G (DNA, G4) GGGTTAGGGTTAGGGTTAGGG
Briefly: thiazole orange displacement (fluorescence). The settings on record: K+ (60 mM K-cacodylate); pH 7; thiazole orange displaced, 0.25 μM DNA.

The test system of assay [18] is dual labeled BCL-2-C (DNA, i motif) CAGCCCCGCTCCCGCCCCCTTCCTCCCGCGCCCGCCCCT
Kind of assay: FRET melting. Conditions: K+ (60 mM K-cacodylate); pH 6 (folded at pH 4.8); 1 μM compound, 100 nM DNA.

In the case of `CN(C)CCCOc1cc(C(=O)NCc2cn(-c3cccc(NC(=O)[C@@H]4CCCN4)c3)nn2)nc(C(=O)NCc2cn(-c3cccc(NC(=O)[C@@H]4CCCN4)c3)nn2)c1`, the ΔT m in [1] (no shift up to 15 μM) came to 1.1 ± 1 °C; in assay [2], 16 ± 1 °C. The K d was 5.8 ± 5% μM in assay [3]; 9.5 ± 5% μM in [4]; 1.9 ± 5% μM in assay [5]; 1.3 ± 5% μM in [6]; more than 25 µM in assay [7]; 10.5 ± 5% μM in assay [8]. For the same compound, the results for the K d in assay [9], in assay [10] and in assay [11] were 15.1 ± 5% μM, 4.5 ± 5% μM and 4.1 ± 5% μM, respectively. Further, the DC50 was 8.2 ± 5% μM in [12]; 2.4 ± 5% μM in assay [13]; 6.8 ± 5% μM in assay [14]; 1.3 ± 5% μM in assay [15]; more than 15 µM in assay [16]; 4.7 ± 5% μM in assay [17].

As to `CN(C)CCCOc1cc(C(=O)NCc2cn(-c3ccc(NC(=O)[C@@H]4CCCN4)cc3)nn2)nc(C(=O)NCc2cn(-c3ccc(NC(=O)[C@@H]4CCCN4)cc3)nn2)c1`, the ΔT m in [1] (no shift up to 10 μM) amounted to 0.94 ± 1 °C; in assay [18], 29 ± 1 °C. Also, the K d in [3] was 0.3 ± 5% μM; in assay [4] it was 2.4 ± 5% μM; in assay [5], 7.2 ± 5% μM; in assay [6], 12.5 ± 5% μM; in assay [7], more than 25 µM; in [8], 2.1 ± 5% μM. Moreover, the K d in assay [9] turned out to be 5.9 ± 5% μM; in assay [10], 11.5 ± 5% μM; in [11], 16.7 ± 5% μM. Moreover, the DC50 worked out at 0.9 ± 5% μM in [12]; 5.7 ± 5% μM in assay [13]; 2.7 ± 5% μM in assay [14]; 8.5 ± 5% μM in assay [15]; 4 ± 5% μM in [16]; 9.8 ± 5% μM in [17].

Take `O=C(NCc1cn(-c2ccc(NC(=O)[C@@H]3CCCN3)cc2)nn1)c1cccc(C(=O)NCc2cn(-c3ccc(NC(=O)[C@@H]4CCCN4)cc3)nn2)n1`: the DC50 in assay [12] is listed as 7.9 ± 5% μM; in assay [13], 9 ± 5% μM; in [14], 8.4 ± 5% μM; in assay [15], 10.2 ± 5% μM; in [16] it was 10 ± 5% μM; in assay [17] it was 8.4 ± 5% μM.
